ChEMBL document CHEMBL2040799, “Exploring the Requirements for the Hydrophobic Scaffold and Polar Amine in inhibitors of M2 from Influenza A Virus” (ACS Med Chem Lett, 2011)

Assays:
[1] = test system: Matrix protein 2 (Influenza A virus), P06821 [V27A]; test: Inhibition of Influenza A Virus M2 proton channel V27A mutant expressed in Xenopus laevis oocytes at 100 uM after 2 mins by two-electrode patch clamp assay; type: cell-based; conditions: Oocyte
[2] = test system: Matrix protein 2 (Influenza A virus), P06821 [withheld]; test: Inhibition of Influenza A Virus M2 proton channel S31N mutant expressed in Xenopus laevis oocytes at 100 uM after 2 mins by two-electrode patch clamp assay; type: cell-based; conditions: Oocyte

Row | Compound | inhibition [1] [%] | inhibition [2] [%]
1 | N=C(N)NC(=N)NC12CC3CC(CC(C3)C1)C2 | < 15 | 33
2 | C1CCC2(CC1)CCNCC2 | < 15 | 33
3 | NC12CC3CC(C1)CC(O)(C3)C2 | < 15 | 33
4 | C1NC2CC3CC1CC(C3)C2 | < 15 | 33
5 | OC1CC2C3CCC(C3)C2C1O (stereo not given) | < 15 | 33
6 | NC1C2CC3CC(C2)CC1C3 (stereo not given) | < 15 | 33
7 | CC(C)(C)c1ccc(CN)cc1 | < 15 | 33
8 | N=C(N)NC12CC3CC(CC(C3)C1)C2 | < 15 | 33
9 | NC(CO)C12CC3CC(CC(C3)C1)C2 (stereo not given) | 4 | 15
10 | CC(C)(C)CC(C)(C)N | < 15 | 33
11 | NC1CC2CC1C1CCCC21 (stereo not given) | < 15 | 33
12 | NC1CCC2(CCCCC2)CC1 | < 15 | 33
13 | NC1C2C3CC4C2C(O)C2C1C3C42 (stereo not given) | < 15 | 33
14 | O=S(=O)(O)C12CC3CC(CC(C3)C1)C2 | < 15 | 33
15 | OC1CCC(C2CC3CCC2C3)CC1O (stereo not given) | < 15 | 33
16 | C1CC2CCC1CNC2 | < 15 | 33
17 | NC(=O)C12CC3CC(CC(C3)C1)C2 | < 15 | 33
18 | OC1C2C3CC4C1C1C2CC3C41 (stereo not given) | < 15 | 33
19 | CC1(C)C(N)C1(C)C | < 15 | 33
20 | CC1(O)C2CC3CC(C2)CC1C3 (stereo not given) | < 15 | 33

Row | Compound | inhibition [1] [%] | inhibition [2] [%]
21 | NN1CCC2(CCCCC2)CC1 | < 15 | 33
22 | CC12CC3(O)CC1(C)CC3(O)C2 | < 15 | 33
23 | N=C(N)NCC12CC3CCC(CC(C3)C1)C2 | < 15 | 33
24 | C1CC2CC1C1CNC21 (stereo not given) | < 15 | 33
25 | NOC12CC3CC(CC(C3)C1)C2 | < 15 | 33
26 | O=C1C2CC3CC(C2)CC1C3 | < 15 | 33
27 | OC12CC3CC(CC(C3)C1)C2 | < 15 | 33
28 | NN1C(=O)CC2(CCCCC2)CC1=O | < 15 | 33
29 | OC1C2C3CC4C2C(O)C2C1C3C42 (stereo not given) | < 15 | 33
30 | N=C(NO)C12CC3CC(CC(C3)C1)C2 | < 15 | 33
31 | NC1Cc2ccccc2C1 | < 15 | 33
32 | NNC1CCC2(CCCCC2)CC1 | < 15 | 33
33 | N=C(N)C12CC3CC(CC(C3)C1)C2 | < 15 | 33
34 | O=C1CC2(CCCCC2)CC(=O)N1 | < 15 | 33
35 | NC12CC3CC(C1)CC(CO)(C3)O2 | < 15 | 33
36 | C1CC2CC1C1CNCC21 (stereo not given) | < 15 | 33
37 | NC12CCC3CC(CC(C3)C1)C2 | < 15 | 33
38 | NC12CC3CCC(CC(C3)C1)C2 | < 15 | 33
39 | NC12CC3CC(CC(C3)C1)C2 | 0 | 35
40 | NC1C2C3CC4C1C1C2CC3C41 (stereo not given) | < 15 | 33
